Earlier results in patent US20020137692A1, “Novel compositions of potassium channel openers and protein kinase C inhibitors and use thereof” (Pharmacia AB, priority 2001, published 2002).

Compound	anagen induction in vivo (hair growth)	stimulation of hair keratinocytes (hair keratinocytes)	hair growth stimulation (C3H mouse)
CCCCCCCCCCCCCCCC(=O)OC(CC(=O)O)C[N+](C)(C)C.[Cl-] (racemic) [palmitoyl-DL-carnitine chloride]	marked anagen induction		
Oc1cc(O)c2c(c1)O[C@H](c1ccc(O)c(O)c1)[C@@H](O)[C@@H]2c1c(O)cc(O)c2c1O[C@H](c1ccc(O)c(O)c1)[C@@H](O)C2 [Solution B3, procyanidin B3]		stimulation of hair keratinocytes	hair growth stimulation
CCCCCCCCCCCCCCCCOP(=O)([O-])OCC[N+](C)(C)C [hexadecylphosphocholine]	marked anagen induction		
Oc1cc(O)c2c(c1)O[C@H](c1ccc(O)c(O)c1)[C@H](O)[C@H]2c1c(O)cc(O)c2c1O[C@H](c1ccc(O)c(O)c1)[C@@H](O)C2 [procyanidin B1]		stimulation of hair keratinocytes	hair growth stimulation
Oc1cc(O)c2c(c1)O[C@H](c1ccc(O)c(O)c1)[C@H](O)[C@H]2c1c(O)cc(O)c2c1O[C@H](c1ccc(O)c(O)c1)[C@H](O)C2 [procyanidin B2]	marked anagen induction	stimulation of hair keratinocytes	hair growth stimulation
Oc1cc(O)c2c(c1)O[C@H](c1ccc(O)c(O)c1)[C@H](O)[C@H]2c1c(O)cc(O)c2c1O[C@H](c1ccc(O)c(O)c1)[C@H](O)[C@H]2c1c(O)cc(O)c2c1O[C@H](c1ccc(O)c(O)c1)[C@H](O)C2 [procyanidin C1]	marked anagen induction	stimulation of hair keratinocytes	hair growth stimulation
calphostin C	marked anagen induction		
polymyxin B sulfate	marked anagen induction		
